Patent US20040063787A1, “Vaginal health products” (priority 2002, published 2004)
“Also recorded” adds a separate entry of the source.

Key:
Format in all cases: cell-based, human
ME-180 cells = experiment: Toxicity & proliferation experiments, ME-180 cell counting; conditions: for effect on ME-180 cell growth: 1 nM, 10 nM, and 100 nM; for ME-180 cell number / cell growth versus no retinoic acid (negative control): 1 μM or 10 μM (micromolar concentrations)
Method: Cell Lines. Human cervical epithelial cells (ME-180, ATCC) were propagated in culture at 37° C. in a 5% CO2 atmosphere in McCoy's 5A media (Invitrogen) with 10% heat-inactivated fetal bovine serum (Invitrogen). All trans-, 9-cis-, and 13-cis-retinoic acids were purchased from ICN Biomedicals. Retinoic acid stock solutions were made up in DMSO.
Toxicity & Proliferation Experiments. Cellular toxicity/proliferation experiments were performed by first washing the ME-180 cells with HBSS, and adding 3 mL of trypsin (0.25%) with EDTA to the T75 flask for 15 minutes. ME-180 cells in trypsin were added to 7 mL of McCoy's 5A media with 10% FBS. ME-180 cells were centrifuged for 5 minutes, and the supernatant was removed. ME-180 cells were resuspended in 10 mL of McCoy's 5A media with 10% FBS for counting. ME-180 cells were centrifuged for 5 minutes, and the supernatant was removed. ME-180 cells were resuspended at 6×10^4 cells per mL (62 mL total volume). One milliliter was added to each of 60 wells in a total of three 24-well plates. ME-180 cells were allowed to adhere to the wells overnight. The media was then removed from the ME-180 cells, and the cells were washed one time with 1 mL of HBSS. One mL of McCoy's 5A media with 10% FBS was added in duplicate on each plate containing the retinoic acids in various concentrations (0-10 μM). ME-180 cells in each plate were counted on day 1, 2, or 3 after the addition of the retinoic acid-containing media.
Cell counting. Media was removed from the ME-180 cells, and the cells were washed one time with 1 mL of HBSS. Trypsin was added (150 μL) to each well for ˜15 minutes to remove cells. One mL of McCoy's 5A media with 10% FBS was added to each well. ME-180 cells were mixed thoroughly and counted using a hemocytometer.
Cell Proliferation of ME-180 Cells. ME-180 cells were incubated with vitamin A derivatives for a period of up to 3 days. ME-180 cells were counted on each day.

[1] = tested on: vascular endothelial growth factor (VEGF); experiment: RT-PCR expression assay of VEGF in ME-180 cells; conditions: 100 nM, 4, 8, and 16 hours, FIG. 5
Method: (§1) RNA Extraction from ME-180 cells. ME-180 cells were plated at 2×10^5 cells per T25 flask (5 mL total volume) and were allowed to propagate for four days. On day four, the media was removed. Five mL of McCoy's 5A media with 10% FBS containing 0, 10 nM, 100 nM, or 1 μM trans-retinoic acid were added to ME-180 cells in duplicate. ME-180 cells were incubated with these solutions for 4, 8, 16, or 24 hours. The media was removed, and 700 μL of lysis buffer was added to the flasks. The cells were scraped off of the flask with a cell scraper. The RNA was isolated using the Ambion RNAqueous kit according to the manufacturer's instructions. Precipitated RNA was resuspended in DEPC-treated water with 1 μL of RNase inhibitor. Total cervical RNA used as a control was purchased from Ambion, Inc.
(§2) Reverse Transcripton of RNA. Approximately 7 μL of RNA was incubated with 3 μL of primer at 80° C. for 10 minutes then immediately placed on ice. A master mix containing 4 μL DEPC water, 4 μL 5× reaction buffer, 1 μL dNTPs, 1 μL of RNase inhibitor, and 1 μL of reverse transcriptase was made for the reactions. Ten μL of master mix was added to the RNA/primer solution and placed at 42° C. for 2 hours. The resulting cDNA was incubated with 3.5 μL of NaOH solution at 70° C. for 10 minutes to hydrolyze the remaining RNA. Five μL of 0.5M Tris/EDTA was added to neutralize the solution. […]

P2Y2 receptor gene = experiment: RT-PCR expression assay of P2Y2 in ME-180 cells; conditions: 100 nM
Method: as §1, §2

mucin-4 (MUC-4) = experiment: RT-PCR expression assay of mucin-4 in ME-180 cells; conditions: 100 nM, absence of serum
Method: as §1, with “Five mL of McCoy's 5A media with 10% FBS containing 0, 10 nM, 100 nM, or 1 μM trans-retinoic acid were added to ME-180 cells in duplicate.” left out
as §2, with “solution. To precipitate the cDNA, 125 μL of 3M NH4OAc, 5 μL of linear polyacrylamide, and 700 μL of absolute ethanol were added.” for “solution.”

[2] = tested on: estrogen receptor alpha (ER-α) gene; experiment: RT-PCR expression assay of ER-α in ME-180 cells; conditions: 100 nM, no serum, 4, 8, and 16 hours, FIG. 4 lanes 4-6, listed as vitamin A
Method: as §1, with “Five mL of McCoy's 5A media with 10% FBS containing 0, 10 nM, 100 nM, or 1 μM trans-retinoic acid were added to ME-180 cells in duplicate.” left out
as §2, with “solution. To precipitate the cDNA, 125 μL of 3M NH4OAc, 5 μL of linear polyacrylamide, and 700 μL of absolute ethanol were added.” for “solution.”

SMILES: CC1=C(/C=C/C(C)=C\C=C\C(C)=C\C(=O)O)C(C)(C)CCC1 [9-cis-retinoic acid]
- effect on ME-180 cell growth (ME-180 cells; up to 3 days, FIG. 1): little effect on cell growth

SMILES: CC1=C(/C=C/C(C)=C/C=C/C(C)=C\C(=O)O)C(C)(C)CCC1 [13-cis-retinoic acid]
- effect on ME-180 cell growth (ME-180 cells; up to 3 days, FIG. 1): little effect on cell growth
- toxicity to ME-180 cells (ME-180 cells; micromolar concentrations): toxic
- ME-180 cell growth versus negative control (ME-180 cells; micromolar concentrations, two days, FIG. 2): did not grow as well as the negative control

SMILES: CC1=C(/C=C/C(C)=C/C=C/C(C)=C/C(=O)O)C(C)(C)CCC1 [trans-retinoic acid]
- VEGF expression (PCR product) [1]: increased the expression
- P2Y2 expression (PCR product) (P2Y2 receptor gene; in the absence of serum, FIG. 3 lanes 8-11): increase in P2Y2 expression
- P2Y2 expression (PCR product) (P2Y2 receptor gene; in the presence of serum, FIG. 3 lanes 4-6): increase in P2Y2 expression
- toxicity (overall conclusion of the experiments) (ME-180 cells): nontoxic
- growth compared with cells exposed to other agents or to no agents (ME-180 cells; 1 nM to 100 nM, up to 3 days, FIG. 1): growing slightly faster
- effect on ME-180 cell growth (ME-180 cells; up to 3 days, FIG. 1): little effect on cell growth
- ME-180 cell number / cell growth versus no retinoic acid (negative control) (ME-180 cells; two days, FIG. 2): more cells were present
- ME-180 cell number / cell growth versus no retinoic acid (negative control) (ME-180 cells; two days, FIG. 2, listed as Vitamin A): increases cervical cell growth
- MUC-4 expression (PCR product) (mucin-4 (MUC-4); 4 hours or 8 hours, FIG. 6 lanes 4 and 5): detectable
- MUC-4 expression (PCR product) (mucin-4 (MUC-4); 16 hours, FIG. 6 lane 6): decreases but is still detectable
- ER-α gene expression (PCR product) [2]: the ER-α gene was expressed; also recorded: increase in ER-α expression
